# Data: article PMC10679740, “Role of peptide–cell surface interactions in cosmetic peptide application” (Frontiers in Pharmacology, 2023)
# Structures can show the parent of a compound that is named as a salt. Where two headings read alike, the source gives them in different places. Where a SMILES comes first, the peptide text is derived from it. Where no end group is shown, it is not given here.
# Tests used:
# [1] = In vitro skin permeation test, Franz-type diffusion cells
# Procedure: The transdermal delivery of GHK and RGD-GHK was measured through the porcine skin. Permeation experiment was carried out for 24 h at 37 °C with Franz-type diffusion cells. Peptides in collected receptor solutions and skin retention were analyzed by HPLC. […] To further test whether the incorporation of a targeting motif could enhance the binding of chimeric peptides in vivo, we used smearing FITC-peptides at the mouse back for 24 h and tracked the peptide location of the skin slices by fluorescent microscopy.
# chymotrypsin = test: Proteolytic stability assay; type: in vitro ADME; conditions: peptide 1 mg/mL, chymotrypsin 1 mg/mL, 37°C, 0, 1, 2, 4, 8, 16 h (Figure S3: 0-8 h); remaining peptide by C18 RP-HPLC, 220 nm
# Procedure: To evaluate the proteolytic stability of peptides against chymotrypsin, the peptides were dissolved to 1 mg/mL and incubated with chymotrypsin (1 mg/mL) at 37°C for different times (0, 1, 2, 4, 8, and 16 h). Afterward, the remaining peptides in the samples were analyzed by C18 reversed-phase high-performance liquid chromatography (HPLC) and detected at 220 nm. The mobile phase of HPLC was a mixture of acetonitrile and deionized water containing 0.1% trifluoroacetic acid.
# mouse red blood cells = conditions: 2 mg/mL peptide, 5% (v/v) mouse red blood cells in PBS, 37°C, 1 h, OD 540 nm; repeated five times
# Procedure: The blood compatibility of peptides was assessed using mouse red blood cells. The procedure involved obtaining red blood cells by centrifuging mouse blood at 2,000 rpm for 5 min, followed by washing them with PBS three times. The red blood cells were then diluted to a final concentration of 5% (v/v). Then, 2 mg/mL of peptides were added to 1 mL of the red blood cell suspension, and the mixture was incubated at 37°C for 1 h. After incubation, the suspension was centrifuged at 2000 rpm for 5 min, and the supernatant was measured at 540 nm using a microplate reader. The positive control consisted of 0.1% Triton X-100, while PBS served as a negative control. […] The hemolysis percentage was calculated using the following formula: hemolysis (%) = [(ODsample −ODnc)/(ODpc − ODnc)] × 100%.
# [2] = biological target: T1, Human neutrophil elastase (Homo sapiens, UniProt P08246); test: Assay of elastase activity (pNA substrate, OD 405 nm); type: biochemical; conditions: 2.5 U/mL elastase, 37°C, 2 h time point; for elastase inhibition rate: peptide 200 μg/mL, 5 min preheating
# T1 construct: purchased Yuanye Bio Co. (Shanghai)
# T1 sequence (P08246 30-267): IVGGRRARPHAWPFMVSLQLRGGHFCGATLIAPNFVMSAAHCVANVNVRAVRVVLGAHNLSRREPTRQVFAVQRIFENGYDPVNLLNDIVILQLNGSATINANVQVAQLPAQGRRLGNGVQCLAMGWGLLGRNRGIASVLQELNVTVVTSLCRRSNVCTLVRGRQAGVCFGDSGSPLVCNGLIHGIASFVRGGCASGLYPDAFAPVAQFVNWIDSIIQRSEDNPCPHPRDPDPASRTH
# Procedure: N-Methoxysuccinyl-ala-ala-pro-val-p-nitroanilide (CAS: 70967-90-7) was bought from Sigma Chemical Co. (St. Louis, United States). Sivelestat sodium salt hydrate (S7198, CAS: 201677-61-4) was purchased from Meilun Co. (Dalian). Human neutrophil elastase (30 U/mg) was obtained from Yuanye Bio Co. (Shanghai). p-Nitroanilide (pNA, CAS: […]) was bought from Aladdin Co. (Shanghai). All other chemicals were of analytical grade and purchased from Sigma.
# The stock solution (0.1 mg/mL pNA) was prepared in 10% DMSO. The standard curve of pNA was made using the different volumes of stock (200, 150, 100, 50, 30, 20, 10, 5, and 1 μL) mixed with 10% DMSO to reach a final volume of 200 μL. The optical density (OD) of each sample was measured at a wavelength of 405 nm.
# Substrates were dissolved in 10% DMSO to form a final concentration of 100 μM. A measure of 100 μL of different concentrations (10, 5, 2.5, 1.25, 0.625, and 0.3125 U/mL) of elastase solution in 10% DMSO was preheated at 37°C for 5 min, and 100 μL of substrate solution was added to start the reaction at 37°C. The absorbance at 405 nm was monitored at 5-min intervals up to a recording time of 2 h at 37°C. A measure of 200 μL of 10% DMSO was taken as a blank control.
# A measure of 90 μL of 2.5 U/mL elastase solution together with 10 μL of the sample at a certain concentration was preheated at 37°C for 5 min, and then 100 μL of the substrate was added to initiate a 120 min-reaction at 37°C. The OD was read at 405 nm. A measure of 200 μL of 10% DMSO was used as a blank control; 10 μL of Sivelestat solution at 10 mM was prepared as a positive control; and 10 μL of PBS was added as a negative control that represented the maximum enzyme activity. The inhibition rate of elastase was calculated according to the following formula: inhibition (%) = [1 − (ODsample − ODblank)/(ODneg − ODblank)] × 100%.
# [3] = test system: COL-1 of mouse embryonic fibroblasts NIH3T3; test: Immunofluorescence staining of COL-1; type: cell-based; conditions: NIH3T3, pretreatment 4 h (RGD-GHK 200 μg/mL), 400 µM H2O2 2 h, fresh medium 20 h
# Procedure: (§1) HFF-1 cells (1.5 × 10^5 cells per well) or mouse embryonic fibroblasts (NIH3T3) were grown on sterile cell slides for 24 h till 80% confluence. A measure of 200 μg/mL of RGD-GHK and GHK solutions was prepared with serum-free DMEM, and the cells were treated with the solutions for 4 h. Then, the solutions were replaced with 400 µM H2O2 and incubated for another 2 h. Then, the fresh culture medium was added to the cells and incubated for another 20 h. Pretreatment without peptides was used as a negative control, while treatment with an anti-aging peptide, acetyl hexapeptide-8 (Wrinklend), was taken as a positive control. The slides were washed three times with PBS, followed by fixation in 500 µL of 4% paraformaldehyde for 15 min at room temperature. After washing with PBS another three times, the cells were permeabilized with 0.5% Triton X-100 for 15 min and washed with PBS repeatedly. The cells were blocked using 1% BSA for 1 h to eliminate non-specific binding. Samples were incubated at 4°C overnight with 100 µL of rabbit monoclonal antibody against type I collagen (COL1A1, 1:100 dilution, CST). […] Then, a fluorescent anti-quenching agent was applied to seal off the slips for 5 min, and the slips were observed using an upright fluorescence microscope.
# [4] = test system: COL-1 of the human fibroblasts HFF-1; test: Immunofluorescence staining of COL-1; type: cell-based; conditions: HFF-1, pretreatment 4 h (RGD-GHK 200 μg/mL), 400 µM H2O2 2 h, fresh medium 20 h
# Procedure: as §1
# HaCaT cells = test: Release of lactate dehydrogenase after H2O2 damage; type: cell-based, human; conditions: 800 μM H2O2 for 2 h, then fresh medium 18 h, no peptide
# Procedure: Lactate dehydrogenase (LDH) activity of the cellular culture was evaluated using an LDH release assay kit (Beyotime). Cells (1 × 10^5 cells per well) were cultured in a 24-well plate for 24 h to reach approximately 80% confluence and then treated either with peptide solution or peptide-free DMEM (positive control, PC). After 4 h incubation, both the peptide solution and peptide-free culture medium were replaced with 250 μL of 800 µM H2O2 and incubated for another 2 h. Then, the cells were incubated with 500 µL of the fresh medium instead of H2O2 for 18 h. Then, 200 µL of the supernatant alone was harvested and mixed with 20 µL of the releasing agent, while the PC medium together with cells was incubated with the equivalent releasing agent. A measure of 200 μL of DMEM alone mixed with 20 µL of the releasing agent was used as a negative control (NC). Then, the solution was incubated at 37°C and 5% CO2 for 1 h and centrifuged at 1,000 rpm for 4 min. A measure of 40 μL suspension per well was pipetted into a 96-well plate and mixed with 20 µL of fresh LDH working solution that was prepared according to the manufacturer’s protocol. The plate was briefly vortexed in the dark for 30 min, and the OD values were measured at 490 nm wavelength. LDH release (%) was expressed via the following equation: LDH (%) = (ODsample − ODnc)/(ODpc − ODnc) × 100%.
# HaCaT [5] = test: Cell viability, CCK-8 assay; conditions: 2 h incubation
# Procedure: (§2) Cells (1 × 10^4 cells per well) were seeded in a 96-well plate to reach approximately 80% confluence. Wells filled with DMEM alone served as positive controls (PCs). The culture medium of sample groups was replaced either by 100 μL of H2O2 or naked/FITC-labeled peptide solutions at different concentrations for a certain time of incubation, and non-treatment wells acted as negative controls (NCs). Then, the plate solutions were substituted with 100 μL of 10% CCK-8 solution per well and incubated for another 2 h, followed by an absorbance reading taken at 450 nm. The cell survival was determined according to the following formula: cell viability (%) = (ODsample − ODpc)/(ODnc − ODpc) × 100%.
# HFF-1 = test: Cell viability, CCK-8 assay; conditions: HFF-1, 2 h incubation
# Procedure: as §2
# HaCaT [6] = test: Cell apoptosis assay (Annexin V-FITC/PI, FCM); type: cell-based, human; conditions: with or without peptide 200 μg/mL 4 h, 800 μM H2O2 2 h, medium 18 h, Figure 4E/G
# Procedure: The percentage of early-stage apoptosis and late-stage apoptosis and necrosis of cells induced by H2O2, with or without peptide addition, were determined using an Annexin V-FITC/PI double-staining assay kit (Beyotime). Cells (1×10^5 cells per well) were seeded in a 24-well plate, pretreated with or without peptide solutions, and incubated for 4 h. The peptide solution or culture medium was replaced with 800 μM of H2O2 solution and was incubated for 2 h at 37°C. Then, the cells were incubated only with the complete medium for another 18 h. Non-treated groups were taken as controls. Suspended medium (200 µL) and trypsin-disassociated cells were collected and centrifuged at 1,000 rpm for 4 min. The precipitate was resuspended in binding buffer (195 µL) plus Annexin V-FITC (5 µL) and incubated for 5 min, followed by 10-min staining of 10 µL propidium iodide (PI). The non-staining sample was used as a reference. After a gentle mix at room temperature and a dark environment, the ratio of cell death was detected via flow cytometry (FCM). […] The free dye was inclined to bind to DNA in the nucleus and emitted strong green fluorescence when DEVD dye was broken down by caspase-3. The fluorescence intensity was measured by FCM, which represented the activity of caspase-3.
# [7] = porcine skin, Franz-type diffusion cells, 24 h, 37 °C, HPLC
compound,measurement,setting,value
"NCCCC[C@H](NC(=O)[C@H](Cc1cnc[nH]1)NC(=O)CN)C(=O)O [GHK, tripeptide-1, reference compound] (H-Gly-His-Lys-OH)",peptide detected in the receptor cell,[1],~0.5%
same,peptide detected in the skin (skin retention),[1],2.7%
RGDGHK [RGD-GHK],"proteolytic stability against chymotrypsin, compared with GHK",chymotrypsin,no significant difference in the proteolytic stability
same,peptide detected in the receptor cell,[1]; [7],approximately 5%
same,peptide detected in the skin (skin retention),[1]; [7],5%
same,hemolysis (RBCs lysed),mouse red blood cells,less than 1%
same,elastase inhibition rate,[2],approximately 25%
acetyl hexapeptide-8 [Wrinklend],COL-1 expression (immunofluorescence),[3],significantly suppressed COL-1 degradation
same,COL-1 expression (immunofluorescence),[4],significantly suppressed COL-1 degradation
OO [H2O2],LDH leakage,HaCaT cells,over 37%
same,concentration with apparent cytotoxic effect,HaCaT [5],"1,600 μM"
same,concentration with obvious cytotoxicity,HFF-1,800 µM
same,ratio of early apoptosis,HaCaT [6],28%
"CC(C)(C)C(=O)Oc1ccc(S(=O)(=O)Nc2ccccc2C(=O)NCC(=O)O)cc1 [Sivelestat, Sivelestat sodium salt hydrate, reference compound]",inhibition at 250 µM,"[2]; 250 μM of Sivelestat (positive control), read-out: elastase inhibition rate",~65%
RKQRRERGHK [sOtx2-GHK],elastase inhibition rate,[2],~20%
